Assays:
Format in all cases: in vivo
[1] = system: Abutilon theophrasti (ABUTH); experiment: Post-emergence herbicidal action
Description: (§1) Seeds of monocotyledonous and dicotyledonous weeds and crop plants are placed in sandy loam in plastic or organic plant pots, covered with soil and cultivated in a greenhouse under controlled growth conditions. 2 to 3 weeks after sowing, the test plants are treated at the one-leaf stage. The compounds of the invention, formulated in the form of wettable powders (WP) or as emulsion concentrates (EC), are then sprayed onto the green parts of the plants as aqueous suspension or emulsion with addition of 0.5% additive at a water application rate of 600 l/ha (converted). After the test plants have been kept in the greenhouse under optimum growth conditions for about 3 weeks, the activity of the preparations is rated visually in comparison to untreated controls. For example, 100% activity=the plants have died, 0% activity=like control plants.
(§2) The abbreviations used here have the following meanings: • ABUTH Abutilon theophrasti • AMARE Amaranlhus retroflexus • CYPES Cyperus serotinus • ECHCGEchinocloa crus galli • LOLRI Lolium rigidum Gaudin • PHBPU Pharbitis purpurcum • SETVI Setaria viridis • VERPE Veronica persica • ALOMY Alopccurus myosuroides • AVEFA Avena fatua • DIGSA Digitaria sanguinalis • LOLMU Lolium multiflorum • MATIN Matricaria inodora • POLCO Polygonum convolvulus • STEME Stellaria media • VIOTR Viola tricolor
(§3) The compounds according to the invention were tested by the post-emergence and pre-emergence methods under the conditions described above for comparative purposes with the structurally closest compounds known from WO 2005/089551 A1 (D1).

[2] = system: Alopecurus myosuroides (ALOMY); experiment: Post-emergence herbicidal action
Description: as §1, §2, §3

Avena fatua (AVEFA) [3] = experiment: Post-emergence herbicidal action
Description: as §1, §2, §3

[4] = system: Echinochloa crus-galli (ECHCG); experiment: Post-emergence herbicidal action
Description: as §1, §2, §3

[5] = system: Lolium multiflorum (LOLMU); experiment: Post-emergence herbicidal action
Description: as §1, §2, §3

[6] = system: Matricaria inodora (MATIN); experiment: Post-emergence herbicidal action
Description: as §1, §2, §3

[7] = system: Polygonum convolvulus (POLCO); experiment: Post-emergence herbicidal action; settings: 80 g of a.i./ha, comparative test
Description: as §1, §2, §3

Setaria viridis (SETVI) [8] = experiment: Post-emergence herbicidal action
Description: as §1, §2, §3

Stellaria media (STEME) [9] = experiment: Post-emergence herbicidal action
Description: as §1, §2, §3

[10] = system: Amaranthus retroflexus (AMARE); experiment: Post-emergence herbicidal action; settings: 320 g/ha, visual rating after about 3 weeks vs untreated controls, 100% = plants have died
Description: as §1, §2

[11] = system: Pharbitis purpurea (PHBPU); experiment: Post-emergence herbicidal action; settings: 320 g/ha, visual rating after about 3 weeks vs untreated controls, 100% = plants have died
Description: as §1, §2

Veronica persica (VERPE) [12] = experiment: Post-emergence herbicidal action; settings: 320 g/ha, visual rating after about 3 weeks vs untreated controls, 100% = plants have died
Description: as §1, §2

Viola tricolor (VIOTR) [13] = experiment: Post-emergence herbicidal action; settings: 320 g/ha, visual rating after about 3 weeks vs untreated controls, 100% = plants have died
Description: as §1, §2

[14] = system: Alopecurus myosuroides (ALOMY); experiment: Pre-emergence herbicidal action
Text: as §2
(§4) Seeds of monocotyledonous and dicotyledonous weed plants and crop plants are placed in plastic or organic plant pots and covered with soil. The compounds of the invention, formulated in the form of wettable powders (WP) or as emulsion concentrates (EC), are then applied onto the surface of the covering soil as aqueous suspension or emulsion with addition of 0.5% additive at a water application rate of 600 l/ha (converted). After the treatment, the pots are placed in a greenhouse and kept under good growth conditions for the trial plants. After about 3 weeks, the effect of the preparations is scored visually in comparison with untreated controls as percentages. For example, 100% activity=the plants have died, 0% activity=like control plants.
as §3

[15] = system: Echinochloa crus-galli (ECHCG); experiment: Pre-emergence herbicidal action
Text: as §2, §4, §3

[16] = system: Matricaria inodora (MATIN); experiment: Pre-emergence herbicidal action
Text: as §2, §4, §3

[17] = system: Polygonum convolvulus (POLCO); experiment: Pre-emergence herbicidal action
Text: as §2, §4, §3

Setaria viridis (SETVI) [18] = experiment: Pre-emergence herbicidal action
Text: as §2, §4, §3

Stellaria media (STEME) [19] = experiment: Pre-emergence herbicidal action
Text: as §2, §4, §3

Viola tricolor (VIOTR) [20] = experiment: Pre-emergence herbicidal action
Text: as §2, §4, §3

[21] = system: Abutilon theophrasti (ABUTH); experiment: Pre-emergence herbicidal action; settings: 320 g/ha, visual scoring after about 3 weeks vs untreated controls, 100% = plants have died
Text: as §2, §4

[22] = system: Amaranthus retroflexus (AMARE); experiment: Pre-emergence herbicidal action; settings: 320 g/ha, visual scoring after about 3 weeks vs untreated controls, 100% = plants have died
Text: as §2, §4

Avena fatua (AVEFA) [23] = experiment: Pre-emergence herbicidal action; settings: 320 g/ha, visual scoring after about 3 weeks vs untreated controls, 100% = plants have died
Text: as §2, §4

[24] = system: Cyperus serotinus (CYPES); experiment: Pre-emergence herbicidal action; settings: 320 g/ha, visual scoring after about 3 weeks vs untreated controls, 100% = plants have died
Text: as §2, §4

[25] = system: Lolium multiflorum (LOLMU); experiment: Pre-emergence herbicidal action; settings: 320 g/ha, visual scoring after about 3 weeks vs untreated controls, 100% = plants have died
Text: as §2, §4

[26] = system: Pharbitis purpurea (PHBPU); experiment: Pre-emergence herbicidal action; settings: 320 g/ha, visual scoring after about 3 weeks vs untreated controls, 100% = plants have died
Text: as §2, §4

Veronica persica (VERPE) [27] = experiment: Pre-emergence herbicidal action; settings: 320 g/ha, visual scoring after about 3 weeks vs untreated controls, 100% = plants have died
Text: as §2, §4

[28] = system: harmful plants such as Abutilon theophrasti, Alopecurus myosuroides, Amaranthus retroflexus, Avena fatua, Echinochloa crus-galli, Matricaria inodora, Pharbitis …; experiment: Post-emergence herbicidal action, summary in text; settings: post-emergence treatment
Description: as §1
In this case, for example, in the post-emergence process, the compounds No. 1-001 and 111-001 have very good herbicidal activity (80% to 100% herbicidal action) against harmful plants such as Abutilon theophrasti, Alopecurus myosuroides, Amaranthus retroflexus, Avena fatua, Echinochloa crus-galli, Matricaria inodora, Pharbitis purpurea, Setaria viridis, Stellaria media, Veronica persica and Viola tricolor at an application rate of 0.32 kg of active substance or less per hectare. At the same time, some compounds according to the invention leave graminaceous crops such as barley, wheat, rye, millet/sorghum, maize, rice or sugarcane virtually undamaged when applied by the post-emergence method, even at high active compound dosages. Some substances are additionally also benign to dicotyledonous crops such as soya, cotton, oilseed rape or sugarbeet.

[29] = system: harmful plants such as Alopecurus myosuroides, Amaranthus retroflexus, Avena fatua, Echinochloa crus-galli, Matricaria inodora, Pharbitis purpurea, Polygonum …; experiment: Pre-emergence herbicidal action, summary in text; settings: pre-emergence treatment
Text: as §4
At the same time, some compounds according to the invention leave graminaceous crops such as barley, wheat, rye, millet/sorghum, maize, rice or sugarcane virtually undamaged when applied by the pre-emergence method, even at high active compound dosages. Some compounds are additionally also benign to dicotyledonous crops such as soya, cotton, oilseed rape or sugarbeet.

[30] = 80 g of a.i./ha, comparative test
[31] = 320 g/ha, visual rating after about 3 weeks vs untreated controls, 100% = plants have died
[32] = 320 g/ha, visual scoring after about 3 weeks vs untreated controls, 100% = plants have died

SMILES: FC(F)(F)c1cnn(-c2cc(C3CC3)nc(Oc3ccnc(C(F)(F)F)c3)n2)c1 [Example I-001, 4-cyclopropyl-6-[4-(trifluoromethyl)-1H-pyrazol-1-yl]-2-{[2-(trifluoromethyl)pyridin-4-yl]oxy}pyrimidine]
- Herbicidal action against ABUTH [1, 30]: 90%
- Post-emergence action ABUTH [1, 31]: 100%
- Herbicidal action against ALOMY [2, 30]: 80%
- Post-emergence action ALOMY [2, 31]: 90%
- Herbicidal action against AVEFA (Avena fatua (AVEFA) [3]; [30]): 80%
- Post-emergence action AVEFA (Avena fatua (AVEFA) [3]; [31]): 90%
- Herbicidal action against ECHCG [4, 30]: 90%
- Post-emergence action ECHCG [4, 31]: 90%
- Herbicidal action against LOLMU [5, 30]: 90%
- Post-emergence action LOLMU [5, 31]: 100%
- Herbicidal action against MATIN [6, 30]: 90%
- Post-emergence action MATIN [6, 31]: 90%
- Herbicidal action against POLCO [7]: 100%
- Herbicidal action against SETVI (Setaria viridis (SETVI) [8]; [30]): 90%
- Post-emergence action SETVI (Setaria viridis (SETVI) [8]; [31]): 100%
- Herbicidal action against STEME (Stellaria media (STEME) [9]; [30]): 90%
- Post-emergence action STEME (Stellaria media (STEME) [9]; [31]): 100%
- Post-emergence action AMARE [10]: 90%
- Post-emergence action PHBPU [11]: 90%
- Post-emergence action VERPE (Veronica persica (VERPE) [12]): 100%
- Post-emergence action VIOTR (Viola tricolor (VIOTR) [13]): 100%
- Herbicidal action against ALOMY [14, 30]: 100%
- Pre-emergence action ALOMY [14, 32]: 100%
- Herbicidal action against ECHCG [15, 30]: 100%
- Pre-emergence action ECHCG [15, 32]: 100%
- Herbicidal action against MATIN [16, 30]: 100%
- Pre-emergence action MATIN [16, 32]: 100%
- Herbicidal action against POLCO [17, 30]: 100%
- Pre-emergence action POLCO [17, 32]: 100%
- Herbicidal action against SETVI (Setaria viridis (SETVI) [18]; [30]): 100%
- Pre-emergence action SETVI (Setaria viridis (SETVI) [18]; [32]): 100%
- Herbicidal action against STEME (Stellaria media (STEME) [19]; [30]): 100%
- Pre-emergence action STEME (Stellaria media (STEME) [19]; [32]): 100%
- Herbicidal action against VIOTR (Viola tricolor (VIOTR) [20]; [30]): 100%
- Pre-emergence action VIOTR (Viola tricolor (VIOTR) [20]; [32]): 100%
- Pre-emergence action ABUTH [21]: 90%
- Pre-emergence action AMARE [22]: 90%
- Pre-emergence action AVEFA (Avena fatua (AVEFA) [23]): 100%
- Pre-emergence action CYPES [24]: 80%
- Pre-emergence action LOLMU [25]: 100%
- Pre-emergence action PHBPU [26]: 100%
- Pre-emergence action VERPE (Veronica persica (VERPE) [27]): 100%
- herbicidal action against harmful plants (in words) [28]: good herbicidal action
- herbicidal action against harmful plants (in words) [29]: good herbicidal action
